In patent US9180128B2, “Stable pharmaceutical compositions of 5,10-methylene tetrahydrofolate” (MERCK & CIE, priority 2003, dated 2015):
Read-outs that look alike come from different tables or passages of the source.

Experiments:
[1] = Storage stability of untreated reference sample; type: physicochemical; settings: storage at +25° C
[2] = physiological common salt solution, +25° C, cited from earlier work

% relative stability ([1]; 0 months) [%]	% relative stability ([1]; 0.5 months) [%]	% relative stability ([1]; 1.0 months) [%]	% relative stability ([1]; 1.75 months) [%]	% relative stability ([1]; 2.5 months) [%]	% relative stability ([1]; 4.5 months) [%]	% relative stability ([1]; 9.2 months) [%]	% relative stability ([1]; 19.0 months) [%]	SMILES	% relative stability ([2]; with the exclusion of air, 0 hours) [%]	% relative stability ([2]; with the exclusion of air, 4.0 hours) [%]	% relative stability ([2]; with the exclusion of air, 24.0 hours) [%]	% relative stability ([2]; with the exclusion of air, 26.0 hours) [%]	% relative stability ([2]; with the exclusion of air, 48.0 hours) [%]	% relative stability ([2]; without the exclusion of air, 0 hours) [%]	% relative stability ([2]; without the exclusion of air, 4.0 hours) [%]	% relative stability ([2]; without the exclusion of air, 24.0 hours) [%]	% relative stability ([2]; without the exclusion of air, 26.0 hours) [%]	% relative stability ([2]; without the exclusion of air, 48.0 hours) [%]
100.0	92.3	83.4	77.2	71.9	61.5	49.1	43.0	Nc1nc2c(c(=O)[nH]1)N1CN(c3ccc(C(=O)N[C@@H](CCC(=O)[O-])C(=O)O)cc3)C[C@H]1CN2.Nc1nc2c(c(=O)[nH]1)N1CN(c3ccc(C(=O)N[C@@H](CCC(=O)[O-])C(=O)O)cc3)C[C@H]1CN2.[Ca+2] [Co 751, calcium salt of 5,10-methylene-(6R)-tetrahydrofolic acid]	–	–	–	–	–	–	–	–	–	–
–	–	–	–	–	–	–	–	Nc1nc2c(c(=O)[nH]1)N1CN(c3ccc(C(=O)N[C@@H](CCC(=O)[O-])C(=O)O)cc3)C[C@H]1CN2.Nc1nc2c(c(=O)[nH]1)N1CN(c3ccc(C(=O)N[C@@H](CCC(=O)[O-])C(=O)O)cc3)C[C@H]1CN2.[Ca+2] [calcium salt of 5,10-methylene-(6R,S)-tetrahydrofolic acid]	100.0	58.0	38.0	18.0	8.0	100.0	84	12.0	8.0	6.0
